Assay results from US4585589A, “Water-soluble alkanoyloxy and alkoxycarbonyloxy rifampicin derivatives, process for its preparation, intermediates, and its pharmaceutical composition as antibacterials” (Gruppo Lepetit S.p.A., priority 1983, dated 1986).
≈ marks a conversion by molar mass, not a printed value. Like-named read-outs stand apart in the source and are kept apart here.

Tests used:
[1] = solubility in water containing 2% ascorbic acid (solution A) and in water containing 2% ascorbic acid and 10% propylene glycol (solution B), with pH of the resulting solutions; format: physicochemical
Method: The compounds of the present invention show a marked solubility in water as well as in mixtures of water with other pharmaceutically acceptable solvents miscible with water. In particular, the solubility of the compounds of the present invention in comparison with rifampicin was assayed in water containing 2% ascorbic acid (solution A) and in water containing 2% ascorbic acid and 10% propylene glycol (solution B) and the pH of the resulting solutions was recorded.

[2] = tested on: Staphylococcus aureus Tour; assay: antibacterial activity in mice infected with Staphylococcus aureus Tour; format: in vivo; settings: sc, values in parentheses as printed, read-out: ED50 against S. aureus Tour
Method: As expected, this slight delay in hydrolysis in vivo reflects in a median effective dose (ED50) for the compounds of formula I somewhat higher than for rifampicin. In particular the antibacterial activity of the compounds of the present invention was tested in mice infected with Staphylococcus aureus Tour.

[3] = cited from earlier work
[4] = solution A: water containing 2% ascorbic acid
[5] = water with 2% ascorbic acid, solution A: water containing 2% ascorbic acid, read-out: solubility

Structure (SMILES) | pH of the resulting solution [1, 4] | solubility [1, 5] [mg/mL] | ED50 [2] [mg/kg] | further results
CO[C@H]1/C=C/O[C@@]2(C)Oc3c(C)c(OC(C)=O)c4c(O)c(c(/C=N/N5CCN(C)CC5)c(O)c4c3C2=O)NC(=O)/C(C)=C\C=C\[C@H](C)[C@H](O)[C@@H](C)[C@@H](O)[C@@H](C)[C@H](OC(C)=O)[C@@H]1C [Example 4, 3-[[(4-methyl-1-piperazinyl)imino]methyl]rifamycin 8-acetate] | 4.0 | 100 (≈ 116 mM) | 0.35 | solubility ([1]; organic solvent or mixture, solution B: water containing 2% ascorbic acid and 10% propylene glycol, read-out: solubility): 150 mg/mL (≈ 173 mM); pH of the resulting solution ([1]; solution B: water containing 2% ascorbic acid and 10% propylene glycol): 4.2
CCC(=O)Oc1c(C)c2c3c4c(O)c(/C=N/N5CCN(C)CC5)c(c(O)c14)NC(=O)/C(C)=C\C=C\[C@H](C)[C@H](O)[C@@H](C)[C@@H](O)[C@@H](C)[C@H](OC(C)=O)[C@H](C)[C@@H](OC)/C=C/O[C@@](C)(O2)C3=O [Example 5, 3-[[(4-methyl-1-piperazinyl)imino]methyl]rifamycin 8-pro-panoate] |  |  | 1.2 | 
CCOC(=O)Oc1c(C)c2c3c4c(O)c(/C=N/N5CCN(C)CC5)c(c(O)c14)NC(=O)/C(C)=C\C=C\[C@H](C)[C@H](O)[C@@H](C)[C@@H](O)[C@@H](C)[C@H](OC(C)=O)[C@H](C)[C@@H](OC)/C=C/O[C@@](C)(O2)C3=O [Example 6, 3-[[(4-methyl-1-piperazinyl)imino]methyl]rifamycin 8-ethylcarbonate] |  |  | 0.76 | 
CO[C@H]1/C=C/O[C@@]2(C)Oc3c(C)c(OC(C)=O)c4c(O)c(c(/C=N/N5CCN(C)CC5)c(OC(C)=O)c4c3C2=O)NC(=O)/C(C)=C\C=C\[C@H](C)[C@H](O)[C@@H](C)[C@@H](O)[C@@H](C)[C@H](OC(C)=O)[C@@H]1C [Example 7] | 4.5 | > 300 | 1.5 | 
CO[C@H]1/C=C/O[C@@]2(C)Oc3c(C)c(O)c4c(O)c(c(/C=N/N5CCN(C)CC5)c(O)c4c3C2=O)NC(=O)/C(C)=C\C=C\[C@H](C)[C@H](O)[C@@H](C)[C@@H](O)[C@@H](C)[C@H](OC(C)=O)[C@@H]1C [rifampicin, 3-[[(4-methyl-1-piperazinyl)imino]methyl]rifamycin] |  |  |  | pH of the resulting solution ([1]; in either solution (A or B)): 3.5-3.6; solubility ([1]; water with 2% ascorbic acid): < 50 mg/mL; solubility in various aqueous media [3]: lower than 20 mg/ml
